Broadly, the AC50 is the concentration giving half of the maximal activity seen. The term CC50 denotes the concentration that lowers cell viability or growth by half. As usually defined, the IC50 is the concentration that inhibits the measured activity by half. For orientation: EC50 means the concentration at which the effect is half-maximal.

The source made the active and inactive calls.

Series [1] addresses Cytochrome P450 3A4 (Homo sapiens, UniProt P08684).
Series [2] concerns the target T1, Cytochrome P450 1A2 (Homo sapiens, UniProt P05177).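 Also: PubChem cytochrome P450 panel assay, CYP1A2 panel member.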
T1 sequence (P05177 whole entry): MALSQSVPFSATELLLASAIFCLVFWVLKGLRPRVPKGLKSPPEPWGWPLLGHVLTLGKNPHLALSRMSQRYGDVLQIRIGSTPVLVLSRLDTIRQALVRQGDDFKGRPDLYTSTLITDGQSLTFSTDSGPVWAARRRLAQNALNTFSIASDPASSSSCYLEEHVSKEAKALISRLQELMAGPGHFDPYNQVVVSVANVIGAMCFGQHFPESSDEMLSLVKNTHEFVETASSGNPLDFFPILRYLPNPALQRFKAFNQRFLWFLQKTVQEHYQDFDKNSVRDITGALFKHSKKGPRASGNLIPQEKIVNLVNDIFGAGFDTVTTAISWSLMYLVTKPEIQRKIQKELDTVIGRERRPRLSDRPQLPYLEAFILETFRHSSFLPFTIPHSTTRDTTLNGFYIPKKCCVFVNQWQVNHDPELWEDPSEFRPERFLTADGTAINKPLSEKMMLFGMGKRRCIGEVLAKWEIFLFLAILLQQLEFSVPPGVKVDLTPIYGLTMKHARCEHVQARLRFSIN

The subject of series [3] is Vero. Description: cells. It is filed as functional. Conditions: Chlorocebus sabaeus.
Series [4] has as its system Vero. The series is described as follows: cells. It is filed as functional, cell-based. Conditions: Chlorocebus sabaeus.
The test system of series [5] is HEK293. Description: cells. Conditions: Homo sapiens.
The subject of series [6] is HEK293. The series is described as follows: cells. Conditions: Homo sapiens. The source holds these as a separate data set.
Series [7] has as its target T2, Rac GTPase-activating protein 1 (Homo sapiens, UniProt Q9H0H5).
T2 sequence (Q9H0H5 whole entry): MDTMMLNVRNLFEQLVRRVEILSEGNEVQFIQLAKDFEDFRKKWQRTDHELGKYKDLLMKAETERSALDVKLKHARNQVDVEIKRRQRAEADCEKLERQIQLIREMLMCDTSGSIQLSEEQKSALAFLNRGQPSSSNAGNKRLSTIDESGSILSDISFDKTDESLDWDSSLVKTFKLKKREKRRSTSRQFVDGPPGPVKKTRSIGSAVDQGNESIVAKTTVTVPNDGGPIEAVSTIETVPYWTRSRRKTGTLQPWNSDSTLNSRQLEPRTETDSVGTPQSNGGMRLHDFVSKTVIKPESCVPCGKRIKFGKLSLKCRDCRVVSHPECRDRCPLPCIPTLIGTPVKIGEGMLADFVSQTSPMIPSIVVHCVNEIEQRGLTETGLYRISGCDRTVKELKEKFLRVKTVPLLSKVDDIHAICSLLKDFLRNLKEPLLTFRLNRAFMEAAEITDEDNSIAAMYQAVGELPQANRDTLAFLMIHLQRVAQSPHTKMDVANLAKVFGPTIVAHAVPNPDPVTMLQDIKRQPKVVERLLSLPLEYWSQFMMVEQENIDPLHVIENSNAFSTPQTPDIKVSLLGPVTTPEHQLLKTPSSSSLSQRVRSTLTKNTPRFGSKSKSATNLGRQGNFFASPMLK
Description: blockers of MgcRacGAP-driven Rac1 GTP hydrolysis – biochemical, ADP Hunter fluorescence, primary and confirmatory, confirmation (AID 624330). It is filed as functional.

Series [8] concerns the target Dual specificity tyrosine-phosphorylation-regulated kinase 1A (Rattus norvegicus, UniProt Q63470). It is filed as biochemical, Homo sapiens. Conditions: read-out: AC50.
Series [9] deals with Cytochrome P450 2C9 (Homo sapiens, UniProt P11712).
In series [10] the target is T3, Carboxy-terminal domain RNA polymerase II polypeptide A small phosphatase 1 (Homo sapiens, UniProt Q9GZU7).
T3 sequence (Q9GZU7 whole entry): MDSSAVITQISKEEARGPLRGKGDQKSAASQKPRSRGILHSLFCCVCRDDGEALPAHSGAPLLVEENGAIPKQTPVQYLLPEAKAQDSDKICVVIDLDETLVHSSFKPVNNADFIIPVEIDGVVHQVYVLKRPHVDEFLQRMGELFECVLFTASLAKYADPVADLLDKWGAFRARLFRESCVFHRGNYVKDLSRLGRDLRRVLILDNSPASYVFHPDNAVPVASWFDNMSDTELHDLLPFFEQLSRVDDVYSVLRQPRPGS
The series is described as follows: CTDSP1 inhibitors, concentration-response, biochemical, absorbance readout, ultra-high-throughput screen actives (AID 540297). It is filed as functional.

Series [11] relates to HEK293. Description: cells. It is filed as functional, cell-based. Conditions: Homo sapiens.
In series [12] the test system is HEK293. Description: cells. It is filed as functional, cell-based. Conditions: Homo sapiens. This is another data set of the same source.
For series [13], the target named is T4, Nucleotide-binding oligomerization domain-containing protein 1 (Homo sapiens, UniProt Q9Y239).
T4 sequence (Q9Y239 whole entry): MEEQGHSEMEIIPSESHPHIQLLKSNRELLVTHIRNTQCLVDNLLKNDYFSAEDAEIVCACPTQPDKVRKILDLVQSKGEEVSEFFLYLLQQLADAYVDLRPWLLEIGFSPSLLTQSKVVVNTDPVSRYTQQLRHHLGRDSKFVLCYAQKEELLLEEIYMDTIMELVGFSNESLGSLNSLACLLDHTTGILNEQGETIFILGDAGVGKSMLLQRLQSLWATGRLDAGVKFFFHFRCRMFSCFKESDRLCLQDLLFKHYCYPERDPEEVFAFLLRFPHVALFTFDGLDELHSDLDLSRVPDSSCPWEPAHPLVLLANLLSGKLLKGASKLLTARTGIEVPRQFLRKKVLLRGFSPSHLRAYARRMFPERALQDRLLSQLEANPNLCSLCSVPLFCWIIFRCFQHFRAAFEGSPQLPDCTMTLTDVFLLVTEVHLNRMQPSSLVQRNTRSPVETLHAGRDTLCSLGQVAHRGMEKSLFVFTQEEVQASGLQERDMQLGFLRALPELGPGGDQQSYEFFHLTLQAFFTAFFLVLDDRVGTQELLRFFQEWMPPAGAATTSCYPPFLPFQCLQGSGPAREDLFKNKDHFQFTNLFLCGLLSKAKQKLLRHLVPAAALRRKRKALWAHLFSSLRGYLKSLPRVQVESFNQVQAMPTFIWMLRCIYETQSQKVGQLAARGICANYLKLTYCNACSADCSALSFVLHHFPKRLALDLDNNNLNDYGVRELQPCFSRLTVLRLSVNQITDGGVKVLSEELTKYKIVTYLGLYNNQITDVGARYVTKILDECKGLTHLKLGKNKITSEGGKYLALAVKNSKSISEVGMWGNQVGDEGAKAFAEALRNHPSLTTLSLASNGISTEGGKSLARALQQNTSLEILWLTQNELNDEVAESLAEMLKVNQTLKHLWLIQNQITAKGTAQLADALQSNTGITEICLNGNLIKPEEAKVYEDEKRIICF
The series is described as follows: blockers of NOD1 pathway activity – revised, SAR follow-up (AID 2333). It is filed as functional.

The test system of series [14] is HEK293. The series is described as follows: inhibition of NOD1-driven NF-kB reporter – cell-based, luminescence, uHTS, primary screen (AID 1578). It is filed as functional. Conditions: Homo sapiens.
Series [15] has as its system HEK293. The series is described as follows: cells. Conditions: Homo sapiens. The source holds these as a separate data set.
Series [16] concerns HEK293. The series is described as follows: NOD2 signaling inhibitors in MDP-stimulated cells, cell-based, uHTS, luminescence (AID 2001). It is filed as functional. Conditions: Homo sapiens.
Series [17] deals with Tumor necrosis factor (Homo sapiens, UniProt P01375). Description: analog potency on TNFa NF-kB signaling – cell-based, revised, SAR follow-up (AID 2337). It is filed as functional.
Series [18] concerns the target T5, Calpain-2 catalytic subunit (Sus scrofa, UniProt P43367).
T5 sequence (P43367 whole entry): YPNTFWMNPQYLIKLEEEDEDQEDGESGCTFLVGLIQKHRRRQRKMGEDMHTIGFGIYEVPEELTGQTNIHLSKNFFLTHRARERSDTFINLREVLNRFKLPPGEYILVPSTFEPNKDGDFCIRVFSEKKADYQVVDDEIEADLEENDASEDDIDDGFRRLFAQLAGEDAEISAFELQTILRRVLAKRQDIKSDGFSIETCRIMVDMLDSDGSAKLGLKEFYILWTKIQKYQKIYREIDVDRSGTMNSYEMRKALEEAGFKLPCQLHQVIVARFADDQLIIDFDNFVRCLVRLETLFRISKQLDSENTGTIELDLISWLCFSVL
Description: m-calpain protease blockers, concentration series – biochemical, fluorogenic peptide substrate, dose response (AID 1420). It is filed as functional.

Cytochrome P450 3A4, sequence (P08684 whole entry): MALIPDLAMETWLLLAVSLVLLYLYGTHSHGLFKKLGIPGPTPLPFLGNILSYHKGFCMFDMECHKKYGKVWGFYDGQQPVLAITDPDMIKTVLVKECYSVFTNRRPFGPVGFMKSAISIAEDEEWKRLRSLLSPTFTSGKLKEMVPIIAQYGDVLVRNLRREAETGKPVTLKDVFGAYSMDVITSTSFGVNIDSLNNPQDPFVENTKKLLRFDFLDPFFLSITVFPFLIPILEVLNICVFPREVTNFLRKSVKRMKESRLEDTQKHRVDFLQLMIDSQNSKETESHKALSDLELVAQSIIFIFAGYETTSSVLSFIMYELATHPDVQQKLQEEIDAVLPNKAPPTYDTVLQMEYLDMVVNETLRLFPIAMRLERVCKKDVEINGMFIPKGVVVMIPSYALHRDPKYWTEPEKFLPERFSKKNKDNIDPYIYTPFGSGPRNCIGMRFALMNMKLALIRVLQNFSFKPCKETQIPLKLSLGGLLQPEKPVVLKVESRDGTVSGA
Cytochrome P450 2C9, sequence (P11712 whole entry, the tested form may be a part): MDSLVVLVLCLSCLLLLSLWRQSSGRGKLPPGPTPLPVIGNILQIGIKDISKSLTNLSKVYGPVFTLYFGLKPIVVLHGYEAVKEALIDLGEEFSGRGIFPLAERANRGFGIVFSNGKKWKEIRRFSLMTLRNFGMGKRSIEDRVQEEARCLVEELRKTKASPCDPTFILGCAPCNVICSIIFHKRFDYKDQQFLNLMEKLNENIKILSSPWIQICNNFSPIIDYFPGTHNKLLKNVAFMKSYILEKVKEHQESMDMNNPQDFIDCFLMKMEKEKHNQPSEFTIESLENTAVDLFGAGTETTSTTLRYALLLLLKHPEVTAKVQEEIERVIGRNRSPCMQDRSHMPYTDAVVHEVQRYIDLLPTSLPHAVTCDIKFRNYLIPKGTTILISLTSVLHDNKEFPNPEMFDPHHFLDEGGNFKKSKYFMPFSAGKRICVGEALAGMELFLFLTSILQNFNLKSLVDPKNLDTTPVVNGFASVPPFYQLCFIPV
Tumor necrosis factor, sequence (P01375 whole entry): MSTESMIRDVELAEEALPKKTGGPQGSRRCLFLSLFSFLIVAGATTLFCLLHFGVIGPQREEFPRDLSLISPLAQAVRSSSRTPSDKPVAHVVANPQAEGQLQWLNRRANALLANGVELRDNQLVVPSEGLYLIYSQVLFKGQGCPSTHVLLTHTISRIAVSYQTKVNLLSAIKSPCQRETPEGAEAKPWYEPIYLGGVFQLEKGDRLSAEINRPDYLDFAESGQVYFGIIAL

Consider `COc1ccc(C(O)P(=O)(OC(C)C)OC(C)C)cc1OC` (centres undefined), for which the AC50 entry was “inconclusive” in series [1] and 11.2 µM (inconclusive) in [2].
With `O=C(/C=C/c1ccccc1O)c1ccc(Cl)cc1`, in [3], the CC50 was 19.6 µM (active).
Take `Cc1cccnc1NC(=O)NC(=O)c1ccc(C(C)(C)C)s1`: the IC50 in series [4] was 22.4 µM (active). Besides, the CC50 in [3] is > 25 µM (active).
In the case of `COc1nc(N)nc(NC(=O)c2cccs2)c1N=O`, the EC50 in series [5] and in series [6] was > 59.6 µM (inactive) throughout. Further, the IC50 in [7] is 116 µM (active).
For the molecule `COc1ccc(-c2coc3cc(O)ccc3c2=O)cc1O` [CALYCOSIN], in series [8], the AC50 was 16.1 µM (active).
On to `O=C(c1cccc(F)c1)N1CCC2(CC1)CCN(c1ccncc1)CC2`, for which the figures for the AC50 result in [1] and in series [9] were “inconclusive” and 25.1 µM (inconclusive), respectively.
For the molecule `O=C1OC(c2ccc3c(c2)OCO3)=N/C1=C\c1ccc(C(=O)O)cc1`, the IC50 in [10] is 1.38 µM (active).
Take `CC(C)OP(=O)(c1ccc(N(C)C)cc1)C(Nc1ccccc1)c1ccccc1` (centres undefined): the EC50 in [5] and in [6] was > 59.6 µM (inactive) each time.
Turning to `O=C(Nc1cccc(-c2nc3ncccc3o2)c1)c1cc2ccccc2o1`, in series [8], the AC50 is 0.942 µM (active).
For the molecule `COc1ccc(/C=N/Nc2ncc(Br)cn2)c(OC)c1`, in [10], the IC50 is 19.6 µM (active).
Turning to `CN(C)N=Nc1nc2c(c(=O)n(C)c(=O)n2C)n1CC1CO1` (centres undefined), in series [4], the IC50 was 21.9 µM (active). Also, the CC50 in series [3] is > 25 µM (active).
As for `COc1ccc(N2CCN(S(=O)(=O)c3ccc4c(c3)NC(=O)C(C)S4)CC2)cc1` (centres undefined), the IC50 in [11] is 12.6 µM (active); in series [12], 4.28 µM (active); in [13], 4.54 µM (active); in series [15], > 20 µM (inactive); in series [16], 7.5 µM (active); in series [17], 10.2 µM (active). In addition, the EC50 in series [14] is 4.87 µM (active).
For `N#CCC(=O)Nc1ccc(C(=O)OCC(=O)Nc2ccc3ccccc3c2)cc1`, in series [10], the IC50 is 68.5 µM (active).
Regarding `Cn1c2ccccc2c(=O)c2ccc(C#CC3(N)CCCCC3)cc21`, the AC50 in series [8] was 23.7 µM (active).
For the molecule `O=C(NC1CCCC1)C(c1ccsc1)N(Cc1ccccc1)C(=O)Cc1cccs1` (centres undefined), the EC50 in [5] and in [6] was > 59.7 µM (inactive) each time. In [18], the IC50 is on record as > 50 µM (not active).
With `Cc1c(-c2ccc(F)cc2)nc(N)c(C#N)c1-c1cccs1`, the figures for the AC50 result in series [1] and in [2] were “inconclusive” and 1.78 µM (inconclusive), respectively.
Consider `COc1ccc(OC(F)(F)F)cc1CC1(C)C(=O)Nc2ccc(S(=O)(=O)NC3CCCCC3)cc21` (centres undefined), for which the EC50 in series [5] and in [6] was > 59.6 µM (inactive) in each case.

The values above are taken from ChEMBL document CHEMBL1201862, “PubChem BioAssay data set” (2004).
